Source: US10179771B2 (GALAPAGOS NV, priority 2014, dated 2019)

Legend:
[1] = target: T1, Recombinant human JAK3 catalytic domain (Homo sapiens, UniProt P52333); test: JAK3 inhibition assay; type: biochemical
T1 construct: Recombinant human JAK3 catalytic domain (amino acids 781-1124; catalog number PV3855); purchased Invitrogen PV3855
Procedure: Recombinant human JAK3 catalytic domain (amino acids 781-1124; catalog number PV3855) was purchased from Invitrogen. 0.5 ng JAK3 protein was incubated with 2.5 μg polyGT substrate (Sigma catalog number P0275) in kinase reaction buffer (25 mM Tris pH 7.5, 0.5 mM EGTA, 10 mM MgCl2, 2.5 mM DTT, 0.5 mM Na3VO4, 5 mM b-glycerolphosphate, 0.01% Triton X-100, 1 μM non-radioactive ATP, […] ^33P-gamma-ATP (GE Healthcare, catalog number AH9968) final concentrations) with or without 5 μL containing test compound or vehicle (DMSO, 1% final concentration), in a total volume of 25 μL, in a polypropylene 96-well plate (Greiner, V-bottom). After 45 min at 30° C., reactions were stopped by adding 25 μL/well of 150 mM phosphoric acid. All of the terminated kinase reaction was transferred to prewashed (75 mM phosphoric acid) 96 well filter plates (Perkin Elmer catalog number 6005177) using a cell harvester (Perkin Elmer). Plates were washed 6 times with 300 μL per well of a 75 mM phosphoric acid solution and the bottom of the plates was sealed. 40 μL/well of Microscint-20 was added, the top of the plates was sealed and readout was performed using the Topcount (Perkin Elmer). Kinase activity was calculated by subtracting counts per min (cpm) obtained in the presence of a positive control inhibitor (10 μM staurosporine) from cpm obtained in the presence of vehicle. The ability of a test compound to inhibit this activity was determined as:
[formula] • RFU test compound=RFU determined for sample with test compound present • RFU control=RFU determined for sample with positive control inhibitor • RFU vehicle=RFU determined in the presence of vehicle
(§1) Dose dilution series were prepared for the compounds enabling the testing of dose-response effects in the JAK3 assay and the calculation of the IC50 for each compound. Each compound was routinely tested at concentration of 20 μM followed by a 1/5 serial dilution, 10 points in a final concentration of 1% DMSO. When potency of compound series increased, more dilutions were prepared and/or the top concentration was lowered (e.g. 5 μM, 1 μM).

[2] = target: T2, Recombinant human TYK2 catalytic domain (Homo sapiens, UniProt P29597); test: TYK2 inhibition assay; type: biochemical
T2 construct: Recombinant human TYK2 catalytic domain (amino acids 871-1187; catalog number 08-147); purchased Carna biosciences 08-147
T2 sequence (P29597 871-1187): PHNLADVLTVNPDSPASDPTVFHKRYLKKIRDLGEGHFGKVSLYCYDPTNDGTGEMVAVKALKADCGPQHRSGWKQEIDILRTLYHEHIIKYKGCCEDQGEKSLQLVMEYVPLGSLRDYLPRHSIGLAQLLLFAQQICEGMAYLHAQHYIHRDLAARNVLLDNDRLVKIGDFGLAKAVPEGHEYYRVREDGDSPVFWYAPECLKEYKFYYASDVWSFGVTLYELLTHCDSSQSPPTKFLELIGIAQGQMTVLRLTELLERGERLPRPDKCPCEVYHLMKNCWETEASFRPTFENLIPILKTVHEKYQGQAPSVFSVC
Procedure: Recombinant human TYK2 catalytic domain (amino acids 871-1187; catalog number 08-147) was purchased from Carna biosciences. 5 ng of TYK2 was incubated with 12.5 μg polyGT substrate (Sigma catalog number P0275) in kinase reaction buffer (25 mM Hepes pH 7.2, 50 mM NaCl, 0.5 mM EDTA, 1 mM DTT, 5 mM MnCl2, 10 mM MgCl2, 0.1% Brij-35, 0.1 μM non-radioactive ATP, 0.125 μCi ^33P-gamma-ATP (GE Healthcare, catalog number AH9968) final concentrations) with or without 5 μL containing test compound or vehicle (DMSO, 1% final concentration), in a total volume of 25 μL, in a polypropylene 96-well plate (Greiner, V-bottom). After 90 min at 30° C., reactions were stopped by adding 25 μL/well of 150 mM phosphoric acid. All of the terminated kinase reaction was transferred to prewashed (75 mM phosphoric acid) 96 well filter plates (Perkin Elmer catalog number 6005177) using a cell harvester (Perkin Elmer). Plates were washed 6 times with 300 μL per well of a 75 mM phosphoric acid solution and the bottom of the plates was sealed. 40 μL/well of Microscint-20 was added, the top of the plates was sealed and readout was performed using the Topcount (Perkin Elmer). Kinase activity was calculated by subtracting counts per min (cpm) obtained in the presence of a positive control inhibitor (10 μM staurosporine) from cpm obtained in the presence of vehicle. The ability of a test compound to inhibit this activity was determined as: Percentage inhibition=((cpm determined for sample with test compound present−cpm determined for sample with positive control inhibitor) divided by (cpm determined in the presence of vehicle−cpm determined for sample with positive control inhibitor))*100.
as §1, with “TYK2” for “JAK3”, “1/3” for “1/5”, “8” for “10”, “points (20 μM-6.67 μM-2.22 μM-740 nM-247 nM-82 nM-27 nM-9 nM)” for “points”

[3] = Illustrative Compounds of the invention (Table IX)
[4] = Illustrative Compounds of the invention (Table XI)

T1 sequence (P52333 781-1124): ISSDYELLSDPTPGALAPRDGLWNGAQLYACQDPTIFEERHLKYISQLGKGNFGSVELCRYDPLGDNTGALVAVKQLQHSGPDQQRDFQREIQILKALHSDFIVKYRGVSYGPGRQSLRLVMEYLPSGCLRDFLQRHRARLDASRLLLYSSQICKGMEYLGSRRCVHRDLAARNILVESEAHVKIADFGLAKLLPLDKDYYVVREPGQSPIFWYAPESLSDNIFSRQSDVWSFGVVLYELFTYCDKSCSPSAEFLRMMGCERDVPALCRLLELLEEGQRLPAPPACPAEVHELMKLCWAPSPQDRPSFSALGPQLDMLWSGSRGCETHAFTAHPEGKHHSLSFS

Compound	IC50 [1, 3]	IC50 [2, 4]	IC50 ([1]; Comparative Compounds (Table X))	IC50 ([2]; Comparative Compounds (Table XII))
Cc1cc(C#N)nc(F)c1N(C)c1cc(NC(=O)[C@H]2C[C@H]2F)c2ncn(C)c2c1 [Cpd 21, (1R,2R)-N-[6-[(6-cyano-2-fluoro-4-methyl-3-pyridyl)-methyl-amino]-1-methyl-benzimidazol-4-yl]-2-fluoro-cyclopropanecarboxamide]	0.05 to 0.1 µM	0.0001 to 0.05 µM		
Cc1cnc(C#N)c(F)c1N(C)c1cc(NC(=O)[C@H]2C[C@H]2F)c2ncn(C)c2c1 [Cpd 22, (1R,2R)-N-[6-[(2-cyano-3-fluoro-5-methyl-4-pyridyl)-methyl-amino]-1-methyl-benzimidazol-4-yl]-2-fluoro-cyclopropanecarboxamide]	0.1 to 0.5 µM	0.0001 to 0.05 µM		
CCc1cc(C(N)=O)ncc1N(C)c1cc(NC(=O)[C@H]2C[C@H]2F)c2ncn(C)c2c1 [Cpd 25, 4-ethyl-5-((4-((1R,2R)-2-fluorocyclopropanecarboxamido)-1-methyl-1H-benzo[d]imidazol-6-yl)(methyl)amino)picolinamide]	0.1 to 0.5 µM	0.0001 to 0.05 µM		
Cc1cc(S(C)(=O)=O)ccc1N(C)c1cc(NC(=O)[C@H]2C[C@H]2F)c2ncn(C)c2c1 [Cpd 26, (1R,2R)-N-[6-(N,2-dimethyl-4-methylsulfonyl-anilino)-1-methyl-benzimidazol-4-yl]-2-fluoro-cyclopropanecarboxamide]	0.1 to 0.5 µM	0.0001 to 0.05 µM		
CCS(=O)(=O)c1ccc(N(C)c2cc(NC(=O)[C@H]3C[C@H]3F)c3ncn(C)c3c2)c(C)c1 [Cpd 27, (1R,2R)-N-[6-(4-ethylsulfonyl-N,2-dimethyl-anilino)-1-methyl-benzimidazol-4-yl]-2-fluoro-cyclopropanecarboxamide]	0.1 to 0.5 µM	0.0001 to 0.05 µM		
Cc1cc(C#N)ncc1Oc1cc(N)c2ncn(C)c2c1 [Cpd 28, 5-(7-amino-3-methyl-benzimidazol-5-yl)oxy-4-methyl-pyridine-2-carbonitrile]	> 0.5 µM	0.1 to 0.5 µM		
CNc1cc(Oc2cnc(C#N)cc2C)cc2c1ncn2C [Cpd 34, 4-methyl-5-[3-methyl-7-(methylamino)benzimidazol-5-yl]oxy-pyridine-2-carbonitrile]	> 0.5 µM	> 0.5 µM		
Cc1cc(C#N)ncc1Oc1cc(N(C)C)c2ncn(C)c2c1 [Cpd 35, 5-[7-(dimethylamino)-3-methyl-benzimidazol-5-yl]oxy-4-methyl-pyridine-2-carbonitrile]	> 0.5 µM	> 0.5 µM		
Cc1cc(C#N)ncc1Oc1cc(NC(=O)N2CCOCC2)c2ncn(C)c2c1 [Cpd 37, N-[6-[(6-cyano-4-methyl-3-pyridyl)oxy]-1-methyl-benzimidazol-4-yl]morpholine-4-carboxamide]	> 0.5 µM	> 0.5 µM		
CN(c1cc2c(cn1)ncn2C)c1ccc(C#N)cc1F [D, reference compound]			> 0.5 µM	> 0.5 µM

Now from value to compound:

IC50 [1, 3]	IC50 [2, 4]	IC50 ([1]; Comparative Compounds (Table X))	IC50 ([2]; Comparative Compounds (Table XII))	Compound
> 0.5 µM	0.0001 to 0.05 µM			Cc1cc(C#N)ncc1Oc1cc(NC(=O)[C@H]2C[C@H]2F)c2ncn(C)c2c1 [Cpd 20, (1R,2R)-N-[6-[(6-cyano-4-methyl-3-pyridyl)oxy]-1-methyl-benzimidazol-4-yl]-2-fluoro-cyclopropanecarboxamide]
> 0.5 µM	0.0001 to 0.05 µM			Cc1cc(C#N)ncc1Oc1cc(NC(=O)C2CC2)c2ncn(C)c2c1 [Cpd 23, N-[6-[(6-cyano-4-methyl-3-pyridyl)oxy]-1-methyl-benzimidazol-4-yl]cyclopropanecarboxamide]
0.1 to 0.5 µM	0.0001 to 0.05 µM			CCc1cc(C(N)=O)ncc1N(C)c1cc(NC(=O)C2CC2)c2ncn(C)c2c1 [Cpd 24, 5-((4-(cyclopropanecarboxamido)-1-methyl-1H-benzo[d]imidazol-6-yl)(methyl)amino)-4-ethylpicolinamide]
> 0.5 µM	0.1 to 0.5 µM			CCc1cc(S(C)(=O)=O)ncc1Oc1cc(NC(=O)C2CC2)c2ncn(C)c2c1 [Cpd 29, N-[6-[(4-ethyl-6-methylsulfonyl-3-pyridyl)oxy]-1-methyl-benzimidazol-4-yl]cyclopropanecarboxamide]
> 0.5 µM	0.05 to 0.1 µM			Cc1cc(C(N)=O)ncc1Oc1cc(NC(=O)[C@H]2C[C@H]2F)c2ncn(C)c2c1 [Cpd 32, 5-[7-[[(1R,2R)-2-fluorocyclopropanecarbonyl]amino]-3-methyl-benzimidazol-5-yl]oxy-4-methyl-pyridine-2-carboxamide]
> 0.5 µM	> 0.5 µM			Cc1cc(C#N)ncc1Oc1cc(NC(=O)N2CC(O)C2)c2ncn(C)c2c1 [Cpd 36, N-[6-[(6-cyano-4-methyl-3-pyridyl)oxy]-1-methyl-benzimidazol-4-yl]-3-hydroxy-azetidine-1-carboxamide]
> 0.5 µM	0.1 to 0.5 µM			Cc1cc(C#N)ncc1Oc1cc(NC(=O)NC(C)C)c2ncn(C)c2c1 [Cpd 38, 1-[6-[(6-cyano-4-methyl-3-pyridyl)oxy]-1-methyl-benzimidazol-4-yl]-3-isopropyl-urea]
